Seven molecules from PMC9705435, “Thiocarbazate building blocks enable the construction of azapeptides for rapid development of therapeutic candidates” (Nature Communications, 2022) can be followed below.

Numbered stars: 1 amine (or outer) side, 2 acyl side, 3 side chain; on linkers, the order of the positions; unused ones are H or OH. Square brackets hold non-standard residues; d marks the D form. Peptide text beside a SMILES is read from it. azaPhe = O=C(N(Cc1ccccc1)N[*:1])[*:2]; azaPro = O=C(N1CCCN1[*:1])[*:2]

One data set deals with T1, 3T3 cells (Mus musculus, UniProt P32299).
T1 sequence (P32299 1-392): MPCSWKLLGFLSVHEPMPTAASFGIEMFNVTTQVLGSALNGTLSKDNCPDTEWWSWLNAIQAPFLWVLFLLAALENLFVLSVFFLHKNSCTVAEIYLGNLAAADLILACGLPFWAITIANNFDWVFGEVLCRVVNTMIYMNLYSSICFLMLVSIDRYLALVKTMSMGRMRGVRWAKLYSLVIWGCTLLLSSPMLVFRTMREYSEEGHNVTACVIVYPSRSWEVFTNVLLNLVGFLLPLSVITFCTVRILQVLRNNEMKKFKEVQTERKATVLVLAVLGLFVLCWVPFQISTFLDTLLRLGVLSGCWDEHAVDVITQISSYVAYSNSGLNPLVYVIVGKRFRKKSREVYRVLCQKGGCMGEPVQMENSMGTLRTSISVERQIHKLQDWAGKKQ
Description: PGE2 induction in 3T3 fibroblasts (ELISA). Particulars: 7 min, serum-free medium. It counts as cell-based. For orientation: In an ELISA, binding on a coated surface is turned into a signal by an enzyme label.

A further data set is described as follows: in vitro. As to conditions: male, C57BL/6J, mouse, blood.
The next data set addresses T2, HMGB1/MD-2 binding (Homo sapiens, UniProt Q9Y6Y9).
T2 construct: purchased R&D Systems 1787-MD
T2 sequence (Q9Y6Y9 17-160 limits assumed): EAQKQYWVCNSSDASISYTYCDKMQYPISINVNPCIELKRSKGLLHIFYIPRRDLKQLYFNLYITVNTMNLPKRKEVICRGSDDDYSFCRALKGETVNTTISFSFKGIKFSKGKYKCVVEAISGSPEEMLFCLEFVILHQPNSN
The experiment in a line: SPR HMGB1/MD-2 binding inhibition assay. Particulars: immobilized disulfide HMGB1, MD-2 0.25 µM.

In data set [1] the target is T3, Human B2 (h) receptor (B2R) (Homo sapiens, UniProt P30411).
T3 construct: host or cells: CHO cells
T3 sequence (P30411 1-391): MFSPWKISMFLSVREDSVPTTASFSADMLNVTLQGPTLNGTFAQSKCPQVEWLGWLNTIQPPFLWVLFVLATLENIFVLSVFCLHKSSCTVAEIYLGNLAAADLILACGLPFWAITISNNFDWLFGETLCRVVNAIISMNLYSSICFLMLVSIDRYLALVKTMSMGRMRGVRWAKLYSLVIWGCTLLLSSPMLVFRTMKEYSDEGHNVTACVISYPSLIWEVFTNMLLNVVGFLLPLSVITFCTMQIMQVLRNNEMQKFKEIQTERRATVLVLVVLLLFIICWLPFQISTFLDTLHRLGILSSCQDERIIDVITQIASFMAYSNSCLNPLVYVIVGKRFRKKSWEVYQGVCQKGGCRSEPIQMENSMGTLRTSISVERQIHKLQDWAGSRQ
The experiment in a line: Human B2 (h) (agonist radioligand) receptor binding assay, [3H]bradykinin displacement. The source says: The data was collected by CRO Eurofins Cerep (France) and the result is attached as an additional data file. B2R radioligand agonist binding displacement assay for determination of IC-50.
Test compounds (FI-U / [azaP2, azaF8-BK (70), FI-2V / azaF8-BK (68), and FI-8G / azaP2-BK (63)) were supplied to Eurofins in a blinded manner and run at five concentrations to determine the IC-50’s. Standard company control test compounds were used for assay validation. Experimental assays achieved inhibition of more than 50% and were considered to represent significant effects of the test compounds.
(B2(h)) was used as the agonist for B2R receptor binding. The results are expressed as a percent of control specific binding (measured specific binding /control specific binding)*100, and as a percent inhibition of control specific binding (100 minus (measured specific binding/ control specific binding)*100) obtained in the presence of the test compounds. The IC50 values (concentration causing a half-maximal inhibition of control specific binding) and Hill coefficients (nH) were determined by non-linear regression analysis of the competition curves generated with mean replicate values using Hill equation curve fitting Y=D+[ A-D / 1+(C/C50) nH] where Y = specific binding, A = left asymptote of the curve, D = right asymptote of the curve, C = compound concentration, C50 = IC50, and nH = slope factor. This analysis was performed using software developed at Cerep (Hill software) and validated by comparison with data generated by the commercial software SigmaPlot® 4.0 for […]
The inhibition constants (Ki) were calculated using the Cheng Prusoff equation. Ki=IC50/(1+L/Kd) where L = concentration of radioligand in the assay, and Kd = affinity of the radioligand for the receptor. A scatchard plot is used to determine the Kd. […]
9.1. Experimental Conditions
9.1.1. In Vitro Pharmacology: Binding Assays
Assay Source Ligand Conc. Kd Non Specific Incubation Detection Bibl.
(agonist recombinant (1 µM) RT counting
9.2. Analysis and expression of results
9.2.1. In Vitro Pharmacology: Binding Assays
The results are expressed as a percent of control specific binding measured specific binding *100 […]
and as a percent inhibition of control specific binding
100-( measured specific binding *100) […]
obtained in the presence of the test compounds.
The IC50 values (concentration causing a half-maximal inhibition of control specific binding) and Hill coefficients (nH) were determined by non-linear regression analysis of the competition curves generated with mean replicate values using Hill equation […]
where Y = specific binding, A = left asymptote of the curve, D = right asymptote of the curve, C = compound concentration, C50 = IC50, and nH = slope factor. This analysis was performed using software developed at Cerep (Hill software) and validated by […]
The inhibition constants (Ki ) were calculated using the Cheng Prusoff equation where L = concentration of radioligand in the assay, and KD = affinity of the radioligand for the receptor. A scatchard plot is used to […]

Another data set has as its system murine monocytes. Description: HMGB1-stimulated TNF release in murine splenic monocytes (ELISA). It counts as cell-based, mouse. Particulars: 0.1, 1 or 10 µM peptide, HMGB1 1 µg/ml, 24 h. The source says:
4.2 HMGB1 protein preparation
For TNF ELISA experiments, […]

The conditions of data set [2]: male, C57BL/6J, mouse, blood.
For data set [3], the system named is STZ-induced type 1 diabetic (T1D) mice. Description: Low-dose streptozotocin (STZ)-induced type 1 diabetes in mice. As to conditions: 500 µg/mouse/day i.p.
Description: Data are presented as means ± SD. […] Mice were simultaneously injected i.p. with saline, FSSE (500 µg/mouse/day), or azaF^1SSazaE^4 (500 µg/mouse/day). Blood glucose was measured on day 0, 7 and 14. Number of mice per group: saline n = 7; FSSE n = 8; azaF^1SSazaE^4 n = 8. Data are presented as mean values ± SEM. […] Serum samples from mice challenged with STZ were collected at day 14 and analyzed by ELISA. n = 7 mice per group. Data are presented as mean values ± SEM. […] Number of islets per group: saline n = 3, 13 islets; FSSE n = 2, 11 islets; azaF^1SSazaE^4 n = 3, 23 islets. P-value was calculated using two-sided Fisher’s exact test to compare islets without (score 0) and with (score 1-4) insulitis. Pancreas tissue was histologically analyzed from 2–3 animals per group. Representative hematoxylin and eosin (H&E) stained images of islets from each group are shown (right panel). Scale bars, 50 μm.
given free access to water and standard rodent chow and were acclimated to their environment for at least 1 week before experimentation.
4.5 STZ-induced type 1 diabetes in mice
Induction of Diabetes T1D was induced by administration of streptozotocin (STZ) (Sigma-Aldrich) (50 mg/kg dissolved in sodium citrate buffer, pH 4.5) to 6-8 weeks old C57Bl/6J mice intraperitoneally (i.p.) once each day for 5 consecutive days.
Mice were given water supplemented with 10% sucrose (Sigma-Aldrich) for six days to prevent sudden hypoglycemia during streptozotocin administration.
of FSSE, azaF1SSazaE4 or saline. Blood glucose with either FreeStyle Lite blood glucose meter (Abbot Diabetes Care, Inc.) or Bayer Contour blood glucose meter (Bayer HealthCare, LLC.) and body weight were measured once weekly. At the end of each study, mice were euthanized by CO2 asphyxiation. Blood and pancreas were collected for further analysis.
Pancreas were fixed in 10% formalin and processed for paraffin embedding (AML Laboratory and Genecopoeia). 7-μm-thick sections were stained with hematoxylin/eosin (Genecopoeia) and the degree of insulitis was eva luated microscopically. Islets were analyzed in multiple sections at 20×.

Description for 3T3 cells: Subconfluent monolayers of 3T3 cells were incubated with test compounds for 7 min in serum-free medium and supernatants were collected and analyzed for PGE2 by ELISA.
5.1 In vitro PGE2 induction
3T3 Swiss Albino cell line (ATCC CCL-92) was purchased from American Type Culture Collection (Manassas, VA).
Following trypsinization, cells were washed and resuspended in DMEM-Complete at a cell density of 0.03 x 10^6 cells per ml. Cells were seeded into 96 -well flat-bottomed culture plates (6 x 10^3 cells per well in 200 µl). After one day of culture, 3T3 cell monolayers were washed two times in pre-warmed DMEM supplemented with 20 mM HEPES (DMEM-HEPES) and DMEM-HEPES
supernatants were collected and immediately frozen at -20°C for future PGE2 analyses. PGE2 levels in supernatants were determined using PGE2 ELISA kit (Enzo Life Sciences, Farmingdale, NY) following manufacturer’s instructions. Samples were assayed in quadruplicate. PGE2 ELISA data were analyzed using GraphPad Prism Version 9.3.1.

As a reminder, the EC50 is the concentration giving half of the maximal effect. High values mean a need for much substance, low ones an effect from little substance. For orientation: half-life means how long it takes for the measured level to halve. A higher half-life goes with slow loss. In turn, `NC(N)=NCCC[C@H](NC(=O)[C@H](Cc1ccccc1)NC(=O)[C@@H]1CCCN1C(=O)[C@H](CO)NC(=O)[C@H](Cc1ccccc1)NC(=O)CNC(=O)[C@@H]1CCCN1C(=O)[C@@H]1CCCN1C(=O)[C@@H](N)CCCN=C(N)N)C(=O)O` [Bradykinin, reference compound] (H-RPPGFSPFR-OH) gave an EC50 at 3T3 cells of 44.4 nM. The half-life in “in vitro” came out at 5.29 ± 0.5 min.
Usually IC50 stands for the concentration at which inhibition is half-maximal. Low values mean higher potency, high ones lower potency. Regarding `NC(=O)CCN(NC(=O)[C@H](CO)NC(=O)[C@H](CO)NC(=O)N(N)Cc1ccccc1)C(N)=O` [Compound 57, azaF^1SSazaQ^4-NH2], the IC50 at HMGB1/MD-2 binding turned out to be 83 nM. Moreover, in “in vitro”, the half-life was more than 120 min.
Consider `NC(=O)CCN(NC(=O)[C@H](CO)NC(=O)[C@H](CO)NC(=O)[C@@H](N)Cc1ccccc1)C(N)=O` [Compound 58, FSSazaQ^4-NH2], for which the IC50 at HMGB1/MD-2 binding stood at 423 nM. Besides, the half-life in the data set “in vitro” (Ex-vivo stability t 1/2) stood at 2.9 ± 0.2 min.
Broadly, the Ki is a dissociation constant, usually derived from enzyme kinetics or from competition with a known ligand. `N=C(N)NCCC[C@H](NC(=O)[C@H](Cc1ccccc1)NC(=O)[C@@H]1CCCN1C(=O)[C@H](CO)NC(=O)[C@H](Cc1ccccc1)NC(=O)CNC(=O)[C@@H]1CCCN1C(=O)N1CCCN1C(=O)[C@@H](N)CCCNC(=N)N)C(=O)O` [Compound 63, RazaP^2PGFSPFR] (H-R[azaPro]PGFSPFR-OH; N-terminus and C-terminus assumed) displayed an EC50 on 3T3 cells of 61.1 nM. For the same molecule, the half-life in the data set “in vitro” came out at 5.4 ± 1.1 min. Also, the IC50 in data set [1] came out at 7.9 nM. Also, the Ki in data set [1] came to 4.5 nM. The “% Inhibition of Control Specific Binding, 1st” value (shortened to “% Inhibition … 1st”) in data set [1] (1.0E-06 M) is listed as 98.9%; in data set [1] (1.0E-07 M) it was 94.6%; in data set [1] (1.0E-08 M), 58.5%; in data set [1] (1.0E-09 M) it was 0.2%; in data set [1] (3.0E-08 M) it was 86.3%. Moreover, the “% Inhibition of Control Specific Binding, 2nd” value (from here on “% Inhibition … 2nd”) is 98.6% in data set [1] (1.0E-06 M); 95.1% in data set [1] (1.0E-07 M); 56.4% in data set [1] (1.0E-08 M); -3.4% in data set [1] (1.0E-09 M); 63.9% in data set [1] (3.0E-08 M). The “% Inhibition of Control Specific Binding, Mean” value (“% Inhibition … Mean” for short) in data set [1] (1.0E-06 M) is given as 98.8%; in data set [1] (1.0E-07 M), 94.9%; in data set [1] (1.0E-08 M), 57.4%; in data set [1] (1.0E-09 M), -1.6%; in data set [1] (3.0E-08 M), 75.1%.
`N=C(N)NCCC[C@H](NC(=O)N(Cc1ccccc1)NC(=O)[C@@H]1CCCN1C(=O)[C@H](CO)NC(=O)[C@H](Cc1ccccc1)NC(=O)CNC(=O)[C@@H]1CCCN1C(=O)[C@@H]1CCCN1C(=O)[C@@H](N)CCCNC(=N)N)C(=O)O` [Compound 68, RPPGFSPazaF^8R] (H-RPPGFSP[azaPhe]R-OH; N-terminus and C-terminus assumed) registered an EC50 on 3T3 cells of 99.6 nM. The half-life in “in vitro” stood at 39.3 ± 2.5 min. For the same molecule, the IC50 in data set [1] turned out to be 8.8 nM. The same molecule registered a Ki in data set [1] of 4.1 nM. Besides, the “% Inhibition … 1st” value turned out to be 99.7% in data set [1] (1.0E-06 M); 98.0% in data set [1] (1.0E-07 M); 61.5% in data set [1] (1.0E-08 M); 8.0% in data set [1] (1.0E-09 M); 72.4% in data set [1] (3.0E-08 M). Further, the “% Inhibition … 2nd” value in data set [1] (1.0E-06 M) came to 100.1%; in data set [1] (1.0E-07 M) it was 95.2%; in data set [1] (1.0E-08 M) it was 66.7%; in data set [1] (1.0E-09 M), 2.9%; in data set [1] (3.0E-08 M), 64.6%. For the same molecule, the “% Inhibition … Mean” value is recorded as 99.9% in data set [1] (1.0E-06 M); 96.6% in data set [1] (1.0E-07 M); 64.1% in data set [1] (1.0E-08 M); 5.4% in data set [1] (1.0E-09 M); 68.5% in data set [1] (3.0E-08 M).
For the molecule `N=C(N)NCCC[C@H](NC(=O)N(Cc1ccccc1)NC(=O)[C@@H]1CCCN1C(=O)[C@H](CO)NC(=O)[C@H](Cc1ccccc1)NC(=O)CNC(=O)[C@@H]1CCCN1C(=O)N1CCCN1C(=O)[C@@H](N)CCCNC(=N)N)C(=O)O` [Compound 70, RazaP^2PGFSPazaF^8R] (H-R[azaPro]PGFSP[azaPhe]R-OH; N-terminus and C-terminus assumed), it took 80.6 nM to reach a half-maximal effect at 3T3 cells (EC50). The same molecule had a half-life in the data set “in vitro” of 29.2 ± 3.8 min. In data set [1], this molecule returned an IC50 of 11 nM. Further, the Ki in data set [1] turned out to be 5.6 nM. Further, the “% Inhibition … 1st” value is given as 97.1% in data set [1] (1.0E-06 M); 84.7% in data set [1] (1.0E-07 M); 36.3% in data set [1] (1.0E-08 M); -9.2% in data set [1] (1.0E-09 M); 67.6% in data set [1] (3.0E-08 M). The “% Inhibition … 2nd” value in data set [1] (1.0E-06 M) is recorded as 99.5%; in data set [1] (1.0E-07 M), 91.4%; in data set [1] (1.0E-08 M), 48.4%; in data set [1] (1.0E-09 M) it was 8.0%; in data set [1] (3.0E-08 M), 73.7%. The “% Inhibition … Mean” value in data set [1] (1.0E-06 M) was 98.3%; in data set [1] (1.0E-07 M) it was 88.1%; in data set [1] (1.0E-08 M), 42.3%; in data set [1] (1.0E-09 M), -0.6%; in data set [1] (3.0E-08 M), 70.6%.
`NC(=O)[C@H](CCC(=O)O)NC(=O)[C@H](CO)NC(=O)[C@H](CO)NC(=O)[C@@H](N)Cc1ccccc1` [FSSE-NH2 (P5779), FSSE-NH2, reference compound] had a half-life in the data set “in vitro” (Ex-vivo stability t 1/2) of less than 2 min. Further, in the data set on murine monocytes, the “HMGB1-induced TNF production” value is given as “dose-dependently reduced”. Also, the “Ex-vivo stability t 1/2” value in data set [2] is on record as 2.0 ± 0.06 min. The “severity of insulitis (insulitis scores)” value in data set [3] (2 weeks of treatment, H&E) is on record as “reduced”. Moreover, in data set [3] (vs diabetic (saline) group), the development of hyperglycemia entry is “no significant effect”.
